# Assay results published in EP1145714A1, “DRUGS” (Takeda Chemical Industries, Ltd., priority 1998, dated 2000).
# Test system: acute and delayed vomiting induced by cisplatin in ferrets
# Experiment: Acute and delayed vomiting induced by cisplatin in ferrets, oral dosing once or twice daily
# Format: in vivo
# Details: cisplatin 5 mg/kg i.p.
# Protocol: Male 4 to 6 ferrets (1.2 to 2.2 kg) per one group were used. Cisplatin was intraperitoneally given at 5 mg/5ml/kg. 30 minutes prior to cisplatin administration and 24 and 48 hours after cisplatin administration, predetermined doses of the compound No. 3 were orally given in case of dosing once daily. 30 minutes prior to cisplatin administration and 12, 24, 36, 48 and 60 hours after cisplatin administration, predetermined doses of the compound No. 3 were orally given in case of dosing twice daily. 30 minutes prior to the dosing of the compound No. 3, a small amount of a feed was given to the animals in any of the cases. Similarly, a predetermined volume of 0.5 % methyl cellulose solution was similarly given orally to a control animal group under no fasting. A predetermined dose of ondansetron was orally given to the animals under fasting. To a control animal group of ondansetron, a predetermined volume of physiological saline was orally given to the animals under fasting. The frequency of vomiting was counted in number, up to 72 hours after cisplatin administration.
# The compound No. 3 was suspended in 0.5 % methyl cellulose solution, for oral dosing at predetermined doses at a ratio of 1 ml per 1 kg body weight. An injection of ondansetron at 0.2 w/v % concentration was orally given at a predetermined volume. Additionally, 0.5 % methyl cellulose solution was orally given at a ratio of 1 ml per 1 kg body weight, while physiological saline was orally given at a ratio of 0.5 to 1.5 ml per 1 kg body weight. The data relating to the frequency of vomiting, the time period (latency) until first vomiting and the time period from the occurrence of vomiting to the termination thereof were statistically analyzed by the Dunnett test, with reference to the difference from the control group.
# The acute vomiting suppression ratio, delayed vomiting suppression ratio and total vomiting suppression ratio were calculated by the following formula. [Frequency of retching or vomiting in control] - [Frequency of retching or vomiting in animals dosed with compound No. 3] / [Frequency of retching or vomiting in control] x 100 (%) [formula]
# [1] = 0.3 mg/kg × 2 p.o., twice daily
# [2] = 1 mg/kg p.o. twice daily, listed as compound No. 3
# [3] = 3 mg/kg p.o. twice daily, listed as compound No. 3
# [4] = 10 mg/kg p.o. once daily, listed as compound No. 3
compound,measurement,setting,value
"Cc1ccc(-c2c3n(c(=O)c4ncccc24)CC[C@@H](C)CN(Cc2cc(C(F)(F)F)cc(C(F)(F)F)c2)C3=O)cc1 [Cpd. No.3, (9R)-7-[3,5-bis(trifluoromethyl)benzyl]-6,7,8,9,10,11-hexahydro-9-methyl-5-(4-methylphenyl)-6,13-dioxo-13H-[1,4]diazocino[2,1-g][1,7]naphthylidine]",On days 1-2(24-48 hours): frequency of retching and vomiting (mean ± SD),[1],209.3 ± 14.0 b
same,On days 1-2(24-48 hours): number of ferrets with vomiting/ number of tested ferrets,[1],4/4
same,Total frequency of retching and vomiting (on days 0-2; 0-72 hours),[1],209.3 ± 14.0 b
same,Acute vomiting suppression ratio (0 to 24 hours after cisplatin dosing),1 mg/kg p.o. twice daily,0 % NS
same,Delayed vomiting suppression ratio (24 to 72 hours after cisplatin dosing),1 mg/kg p.o. twice daily,70 % a
same,Total vomiting suppression ratio (0 to 72 hours after cisplatin dosing),1 mg/kg p.o. twice daily,54 % b
same,Delayed vomiting suppression ratio (24 to 72 hours after cisplatin dosing),[2],70%
same,Total vomiting suppression ratio (0 to 72 hours after cisplatin dosing),[2],54%
same,Duration (in hour; mean ± SD),"1 mg/kg × 2 p.o., twice daily",64.8 ± 2.2 h
same,Latency (in hour; mean ± SD),"1 mg/kg × 2 p.o., twice daily",3.4 ± 1.1 h
same,On day 0 (0-24 hours): frequency of retching and vomiting (mean ± SD),"1 mg/kg × 2 p.o., twice daily",71.8 ± 20.6
same,On day 0 (0-24 hours): number of ferrets with vomiting/ number of tested ferrets,"1 mg/kg × 2 p.o., twice daily",4/4
same,On days 1-2(24-48 hours): frequency of retching and vomiting (mean ± SD),"1 mg/kg × 2 p.o., twice daily",108.0 ± 9.6 b
same,On days 1-2(24-48 hours): number of ferrets with vomiting/ number of tested ferrets,"1 mg/kg × 2 p.o., twice daily",4/4
same,Total frequency of retching and vomiting (on days 0-2; 0-72 hours),"1 mg/kg × 2 p.o., twice daily",179.8 ± 21.0 b
same,Delayed vomiting suppression ratio (0 to 72 hours after cisplatin dosing),"3 mg/kg p.o. once daily, listed as compound No. 3",42%
same,Acute vomiting suppression ratio (0 to 24 hours after cisplatin dosing),3 mg/kg p.o. twice daily,82 % NS
same,Delayed vomiting suppression ratio (24 to 72 hours after cisplatin dosing),3 mg/kg p.o. twice daily,59 % b
same,Total vomiting suppression ratio (0 to 72 hours after cisplatin dosing),3 mg/kg p.o. twice daily,61 % b
same,Acute vomiting suppression ratio (0 to 24 hours after cisplatin dosing),[3],82%
same,Delayed vomiting suppression ratio (24 to 72 hours after cisplatin dosing),[3],59%
same,Acute vomiting suppression ratio (0 to 24 hours after cisplatin dosing),"3 mg/kg p.o., once daily",48 % NS
same,Delayed vomiting suppression ratio (0 to 72 hours after cisplatin dosing),"3 mg/kg p.o., once daily",42 % a
same,Delayed vomiting suppression ratio (24 to 72 hours after cisplatin dosing),"3 mg/kg p.o., once daily",40 % NS
same,Duration (in hour; mean ± SD),"3 mg/kg p.o., once daily",61.2 ± 1.2 h
same,Latency (in hour; mean ± SD),"3 mg/kg p.o., once daily",7.8 ± 1.1 h
same,On day 0 (0-24 hours): frequency of retching and vomiting (mean ± SD),"3 mg/kg p.o., once daily",56.8 ± 18.4
same,On day 0 (0-24 hours): number of ferrets with vomiting/ number of tested ferrets,"3 mg/kg p.o., once daily",4/4
same,On days 1-2(24-48 hours): frequency of retching and vomiting (mean ± SD),"3 mg/kg p.o., once daily",209.5±23.6
same,On days 1-2(24-48 hours): number of ferrets with vomiting/ number of tested ferrets,"3 mg/kg p.o., once daily",4/4
same,Total frequency of retching and actual vomiting (on days 0-2; 0-72 hours),"3 mg/kg p.o., once daily",266.3 ± 20.6 a
same,Duration (in hour; mean ± SD),"3 mg/kg × 2 p.o., twice daily",40.9 ± 13.9 h
same,Latency (in hour; mean ± SD),"3 mg/kg × 2 p.o., twice daily",25.8 ± 10.7 h
same,On day 0 (0-24 hours): frequency of retching and vomiting (mean ± SD),"3 mg/kg × 2 p.o., twice daily",6.0 ± 4.5
same,On day 0 (0-24 hours): number of ferrets with vomiting/ number of tested ferrets,"3 mg/kg × 2 p.o., twice daily",2/4
same,On days 1-2(24-48 hours): frequency of retching and vomiting (mean ± SD),"3 mg/kg × 2 p.o., twice daily",145.0 ± 50.5 b
same,On days 1-2(24-48 hours): number of ferrets with vomiting/ number of tested ferrets,"3 mg/kg × 2 p.o., twice daily",4/4
same,Total frequency of retching and vomiting (on days 0-2; 0-72 hours),"3 mg/kg × 2 p.o., twice daily",150.8 ± 53.1 b
same,Acute vomiting suppression ratio (0 to 24 hours after cisplatin dosing),[4],83%
same,Delayed vomiting suppression ratio (24 to 72 hours after cisplatin dosing),[4],65%
same,Acute vomiting suppression ratio (0 to 24 hours after cisplatin dosing),"10 mg/kg p.o., once daily",83 % NS
same,Delayed vomiting suppression ratio (0 to 72 hours after cisplatin dosing),"10 mg/kg p.o., once daily",70 % b
same,Delayed vomiting suppression ratio (24 to 72 hours after cisplatin dosing),"10 mg/kg p.o., once daily",65 % a
same,Duration (in hour; mean ± SD),"10 mg/kg p.o., once daily",51.4 ± 7.0 a hour
same,Effect on delayed vomiting induced by cisplatin (in words),"10 mg/kg p.o., once daily",prominently suppressed
same,Latency (in hour; mean ± SD),"10 mg/kg p.o., once daily",16.2 ± 5.6 h
same,On day 0 (0-24 hours): frequency of retching and vomiting (mean ± SD),"10 mg/kg p.o., once daily",19.0 ± 11.0 b
same,On day 0 (0-24 hours): number of ferrets with vomiting/ number of tested ferrets,"10 mg/kg p.o., once daily",3/4
same,On days 1-2(24-48 hours): frequency of retching and vomiting (mean ± SD),"10 mg/kg p.o., once daily",120.5 ± 5.0 a
same,On days 1-2(24-48 hours): number of ferrets with vomiting/ number of tested ferrets,"10 mg/kg p.o., once daily",4/4
same,Total frequency of retching and actual vomiting (on days 0-2; 0-72 hours),"10 mg/kg p.o., once daily",139.5 ± 8.3 b
